{"source": "paper PMC7955031", "about": "“Facile accelerated specific therapeutic (FAST) platform develops antisense therapies to counter multidrug-resistant bacteria” (Communications Biology, 2021)", "key": {"ESBL KPN": {"tested_on": "ESBL KPN", "assay": "Antibiotic resistance screening (MIC)", "type": "cell-based, Klebsiella pneumoniae", "conditions": "for Antibiotic resistance characterization (R/S/I): 24 h", "method": "(§1) The clinical isolates were obtained from the lab of Nancy Madinger at the University of Colorado Anschutz campus. Clinical isolates were grown in Cation Adjusted Mueller–Hinton broth (CAMHB) (Becton, Dickinson and Company 212322) at 37 °C with 225 rpm shaking or on solid CAMHB with 1.5% agar at 37 °C. Clinical isolates were maintained as freezer stocks in […], 40% glycerol at −80 °C. Freezer stocks were streaked out onto solid CAMHB and incubated for 16 h to produce single colonies prior to experiments. For each biological replicate, a single colony was picked from solid media and grown for 16 h in liquid CAMHB prior to experiments. Non-clinical isolates, such as E. coli MG1655 (ATCC700926) and Salmonella enterica serovar Typhimurium SL1344, expressing GFP from the chromosome (rpsm::gfp)[54], were cultured in liquid 2% lysogeny broth (LB) or on 2% LB with 1.5% agar for solid plates. SL1344 cultures were supplemented with 30 µg/mL streptomycin and SL1344 strains containing plasmids pFPV (target STm) or pRG1 modified with a lacIq promotor (SL1344-holin) were supplemented with 100 µg/mL ampicillin. Freezer stocks were stored in 60% LB broth, 40% glycerol at −80 °C. Freezer stocks were streaked out onto solid LB and incubated for 16 h to produce single colonies before experiments. For biological replicates, single colonies were started in liquid LB and grown for 16 h prior to experiments. E. coli MG1655 PNA growth experiments were carried out in M9 media (1x M9 minimal media salts solution (MP Biomedicals), 2.0 mM MgSO4, and 0.1 mM CaCl2 in sterile water) with 0.4% glucose.\nSensitive/resistant breakpoints were taken from the 2016–2017 Clinical & Laboratory Standards Institute report[41] (Table S1). Liquid cultures of the clinical strains were diluted to a 0.5 McFarland standard and added to the respective antibiotic test condition. […] Strains were “sensitive” if the MIC was equal to or below the sensitive-breakpoint concentration, “resistant” if the MIC was greater than or equal to the resistant-breakpoint concentration, and “intermediate” if the MIC was in-between."}, "MDR STm": {"tested_on": "MDR STm", "type": "cell-based, Salmonella enterica serovar Typhimurium", "conditions": "concentration range at which 90% of growth inhibition occurs at 24 hours, Table S2", "method": "as §1, with “For biological replicates, single colonies were started in liquid LB and grown for 16 h prior to experiments. E. coli MG1655 PNA growth experiments were carried out in M9 media (1x M9 minimal media salts solution (MP Biomedicals), 2.0 mM MgSO4, and 0.1 mM CaCl2 in sterile water) with 0.4% glucose.” left out"}, "CRE E. coli": {"tested_on": "CRE E. coli", "type": "cell-based, Escherichia coli", "conditions": "concentration range at which 90% of growth inhibition occurs at 24 hours, Table S2", "method": "as §1, with “For biological replicates, single colonies were started in liquid LB and grown for 16 h prior to experiments. E. coli MG1655 PNA growth experiments were carried out in M9 media (1x M9 minimal media salts solution (MP Biomedicals), 2.0 mM MgSO4, and 0.1 mM CaCl2 in sterile water) with 0.4% glucose.” left out"}, "MDR E. coli": {"tested_on": "MDR E. coli", "type": "cell-based, Escherichia coli", "conditions": "concentration range at which 90% of growth inhibition occurs at 24 hours, Table S2", "method": "as §1, with “For biological replicates, single colonies were started in liquid LB and grown for 16 h prior to experiments. E. coli MG1655 PNA growth experiments were carried out in M9 media (1x M9 minimal media salts solution (MP Biomedicals), 2.0 mM MgSO4, and 0.1 mM CaCl2 in sterile water) with 0.4% glucose.” left out"}, "NDM-1 KPN": {"tested_on": "NDM-1 KPN", "type": "cell-based, Klebsiella pneumoniae", "conditions": "concentration range at which 90% of growth inhibition occurs at 24 hours, Table S2", "method": "as §1, with “For biological replicates, single colonies were started in liquid LB and grown for 16 h prior to experiments. E. coli MG1655 PNA growth experiments were carried out in M9 media (1x M9 minimal media salts solution (MP Biomedicals), 2.0 mM MgSO4, and 0.1 mM CaCl2 in sterile water) with 0.4% glucose.” left out"}}}
{"smiles": "CC1(C)S[C@@H]2[C@H](NC(=O)[C@H](N)c3ccccc3)C(=O)N2[C@H]1C(=O)O", "note": "[AMP, ampicillin]", "values": [{"measurement": "Antibiotic resistance characterization (R/S/I)", "setting": "ESBL KPN", "result": "R"}]}
{"smiles": "O=C(N[C@H](CO)[C@H](O)c1ccc([N+](=O)[O-])cc1)C(Cl)Cl", "note": "[CHL, chloramphenicol]", "values": [{"measurement": "Antibiotic resistance characterization (R/S/I)", "setting": "ESBL KPN", "result": "S"}]}
{"smiles": "NC[C@H]1O[C@H](O[C@H]2[C@H](O)[C@@H](O[C@H]3O[C@H](CO)[C@@H](O)[C@H](N)[C@H]3O)[C@H](N)C[C@@H]2N)[C@H](O)[C@@H](O)[C@@H]1O", "note": "[KAN, kanamycin]", "values": [{"measurement": "Antibiotic MIC90", "setting": "MDR STm", "result": "< 16", "unit": "µg/mL"}, {"measurement": "Antibiotic MIC90", "setting": "ESBL KPN; ESBL KPN, concentration range at which 90% of growth inhibition occurs at 24 hours, Table S2", "result": "> 64", "unit": "µg/mL"}, {"measurement": "Antibiotic MIC90", "setting": "CRE E. coli", "result": "> 64", "unit": "µg/mL"}, {"measurement": "Antibiotic MIC90", "setting": "MDR E. coli", "result": "< 16", "unit": "µg/mL"}, {"measurement": "Antibiotic MIC90", "setting": "NDM-1 KPN", "result": "> 64", "unit": "µg/mL"}]}
{"smiles": "CCn1cc(C(=O)O)c(=O)c2ccc(C)nc21", "note": "[NXA, nalidixic acid]", "values": [{"measurement": "Antibiotic resistance characterization (R/S/I)", "setting": "ESBL KPN", "result": "R"}]}
